Several values for one entry are separate records, joined by “and”; a condition that tells them apart may be missing. Identical values can stand only once.
Columns and labels:
[1] = target: T1, endogenous MYC:MAX interaction (Homo sapiens, UniProt P01106); assay: isPLA endogenous MYC:MAX in breast cancer cells (MCF7); type: cell-based; conditions: 24 hours; for MYC:MAX isPLA signals, % of DMSO-treated controls: 10 μM, breast cancer cells; for IC50: titration in MCF7 cells, read-out: IC50 for inhibition of MYC:MAX by isPLA
T1 construct: endogenous in cells; host or cells: breast cancer cells; MCF7 named for the titration
Procedure: The isPLA assay has been described. Antibodies used are listed in Supplementary Information. […] Slides were washed in PBS with 0.05% Tween 20 and incubated in blocking buffer after which isPLA was performed using the Duolink® in situ PLA kit (Sigma-Aldrich) according to the manufacturer’s protocol. DNA was stained with DAPI. Incubation with primary antibodies were performed at +4 °C overnight. Images were taken using an Axiovert 200M inverted microscope (Zeiss) and fluorescent dots were quantified using semi-automated analysis in ImageJ (http://imagej.net) and averaged to number of dots per cell.

MXD1 (MAD1) bHLHZip = MXD1 (MAD1) bHLHZip (Homo sapiens, UniProt Q05195); assay: SPR binding to MXD1 (MAD1)
Procedure: (§1) The MYC SPR assay was carried out as described above with MYCbHLHZip immobilized to a level of 800–1000 RU. For kinetic binding experiments, a Langmuir 1:1 binding event was applied using the Biacore T200 Evaluation Software 2.0 (GE Healthcare) to determine association (ka) and dissociation (kd) constants of the compound and to calculate affinity (KD) by the formula; KD = kd/ka. Binding responses from equilibrium binding experiments were plotted against compound concentration and KD values were determined at 50% of the theoretical Rmax with the formula Rmax = (MW analyte/MW ligand) × immobilized ligand level on the chip (RU) × stoichiometry (1:1). Same coupling method described above was used to immobilize the control proteins. MAX was immobilized to approximately 2000 RU, MAD to 600 RU, BSA to 1000 RU, p53 to 3000 RU and BCL-XL, to 500 RU.

p53 core protein = tested on: T2, p53 core protein; assay: SPR binding to p53
T2 construct: Truncated p53 core protein was a kind gift from Klas Wiman; gift from Klas Wiman, CCK, Karolinska Institutet
Procedure: as §1

[2] = tested on: MYCN-amplified neuroblastoma cells (IMR-32, Kelly, SK-N-DZ); assay: Resazurin growth assay, MYCN-amplified neuroblastoma cell lines; type: cell-based, human; conditions: 48 hours; for growth of MYCN-amplified versus MYCN-non-amplified neuroblastoma cell lines: MYCMI-6 6.25 μM, MYCMI-11 and MYCMI-14 25 μM, 10058-F4 64 μM
Source text: HEK293A, MCF7, MDA-MB231, SK-N-F1, SK-N-RA, SK-N-AS, COS-7, HeLa, BJ cells, and Rat1 fibroblasts TGR-1 (wt), HO15.19 (MYC knockout) and HOmyc3 (MYC reconstituted HO15.19) were maintained in DMEM. The neuroblastoma cell lines Kelly, IMR-32 and SK-N-DZ, and the Burkitt’s lymphoma cell lines Mutu, Daudi and ST486 were kept in RPMI. SK-N-BE(2) cells were maintained in a 1:1 mixture of EMEM and F12 media, supplemented with 1% non-essential amino acid solution (NEAA) and 0.5% Glutamine. U2OS-MYC-ER cell lines were cultured in phenol-red free DMEM and treated with 100 nM 4-hydroxytamoxifen (HOT) (Sigma-Aldrich) to activate MYC-ER. IMR-90 was maintained in MEM. All media were supplemented with 10% FBS and 1% penicillin and streptomycin and kept at 37 °C and 5% CO2. All cell lines were mycoplasma free. Cell proliferation assays were performed as described in Supplementary Information. […]
Cell proliferation assays. Cell growth and viability was estimated in triplicates with WST-1
(Roche) or Resazurin sodium salt (Sigma-Aldrich) assays in medium at 37°C and 5% CO 2 for
2 hours after which absorbance or fluorescence, respectively, was measured with an Omega
Fluostar (BMG Labtech) in a 96 well plate format. […]

SK-N-DZ cells = assay: Anchorage-independent growth in agarose; type: cell-based; conditions: Homo sapiens, 384 h, 0.35% agarose, 16 days
Procedure: Triton-X-114 (Sigma). Truncated p53 core protein was a kind gift from Klas Wiman, CCK, […]
Cell proliferation assays. Cell growth and viability was estimated in triplicates with WST-1 (Roche) or Resazurin sodium salt (Sigma-Aldrich) assays in medium at 37°C and 5% CO 2 for 2 hours after which absorbance or fluorescence, respectively, was measured with an Omega Fluostar (BMG Labtech) in a 96 well plate format. Cell counting was done in 96 well plates with CellTracker Green (ThermoFisher) for 30 min in the incubator, after which DAPI was added for 5 min. Images were taken in the green (FITC) and blue (DAPI) channels using a fluorescence microscope (ImageXpress Micro, Molecular Devices). For anchorage-independent growth assay, cells were suspended in 250 µl 0.35% SeaPlaque agarose (InVitro) and seeded into 24 well plates which had previously been coated with a bottom layer of 250 µl 0.7% agarose. After 16 days, the colonies were stained with 100 µg/ml MTT (Sigma) overnight and colonies were counted.
(§2) Immunohistochemistry. Apoptosis was visualized at the single-cell level on tumor cryosections using the TUNEL method using the In Situ Cell Death Detection Fluorescein-Roche kit and analyzed by fluorescence microscopy. Briefly, tumor cryosections were fixed in 4% paraformaldyde (PFA) and the assay was performed following the instructions from the manufacturer. Negative controls were run using the reagent without the TdT enzyme. Samples were mounted using Vectashield mounting medium (Vector) and DAPI was used as nuclear counterstaining. Cell proliferation and microvascular density (MVD) were evaluated through Ki67 and CD31staining, respectively, on tumor cryosections and detected by immunofluoresence. Visualization and image acquisition was done in a Zeiss microscope, and for panoramic views by a Vectra imaging system. For quantification, areas with positive TUNEL and Ki67 staining were measured using Image J software. For the analysis of MVD, the number of vessel structures per microscopic field was calculated.

[3] = tested on: SK-N-DZ MYCN-amplified neuroblastoma xenograft tumors; assay: SK-N-DZ neuroblastoma xenograft tumor model; type: in vivo, mouse; conditions: 20 mg/kg i.p. daily, 1–2 weeks, vs vehicle
Procedure: The last dose was administered 3 hrs before termination. […]
as §2

MYCN:MAX interaction = tested on: T3, MYCN:MAX interaction; assay: isPLA MYCN:MAX on xenograft tumor tissue; type: in vivo, mouse; conditions: 20 mg/kg i.p. daily, 1–2 weeks, vs vehicle
T3 construct: from tissue; host or cells: SK-N-DZ xenograft tumour grown in athymic nude mice
Procedure: isPLA for tumor tissue was performed using 4% formaldehyde fixed paraffin embedded material. The tissue slides were deparaffinized at 65 °C for an hour, rehydrated in 1X Aqua De Par (Biocare Medical) and incubated at 80 °C for 10 min in a pressure chamber (Decloaking Chamber™ Biocare Medical). Slides were soaked in antigen retrieval buffer (10 mM sodium citrate, pH 6.0) and heated in the pressure chamber to 100 °C for 20 minutes, after which the temperature was lowered to 65 °C. Slides were removed from the chamber and cooled down to room temperature. The antigen retrieval buffer was replaced gradually by deionized H2O for 15 min. Slides were placed in blocking buffer (Duolink® isPLA kit) for 1.5 hours at 37 °C followed by an extra blocking step using the Mouse on Mouse (M.O.M.™) basic kit (Vector Laboratories) according to manufacturers’ protocol. isPLA was performed as above.
The last dose was administered 3 hrs before termination.

T1 sequence (P01106 whole entry): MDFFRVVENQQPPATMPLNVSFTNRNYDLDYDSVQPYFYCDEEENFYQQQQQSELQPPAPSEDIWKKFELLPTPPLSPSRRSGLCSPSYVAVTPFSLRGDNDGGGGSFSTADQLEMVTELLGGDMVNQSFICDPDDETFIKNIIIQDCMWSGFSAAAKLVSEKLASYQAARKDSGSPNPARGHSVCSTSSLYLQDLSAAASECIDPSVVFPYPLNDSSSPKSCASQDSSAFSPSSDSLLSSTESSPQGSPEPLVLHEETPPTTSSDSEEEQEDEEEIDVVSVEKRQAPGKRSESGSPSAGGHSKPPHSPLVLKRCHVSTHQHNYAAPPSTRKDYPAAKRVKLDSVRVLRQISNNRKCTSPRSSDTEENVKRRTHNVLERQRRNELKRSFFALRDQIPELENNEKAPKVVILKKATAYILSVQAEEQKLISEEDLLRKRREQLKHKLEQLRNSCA
Chain of MXD1 (MAD1) bHLHZip (Q05195 56-137 limits assumed): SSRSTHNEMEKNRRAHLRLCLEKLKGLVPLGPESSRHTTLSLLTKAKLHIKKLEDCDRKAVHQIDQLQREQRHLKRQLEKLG

SMILES | MYC:MAX isPLA signals, % of DMSO-treated controls [1] [%] | IC50 [1] | binding to MXD1 (MAD1) (SPR) (MXD1 (MAD1) bHLHZip) | binding to p53 (SPR) (p53 core protein) | GI50 ([2]; Homo sapiens, Neuroblastoma cell, resazurin) [µM] | growth of MYCN-amplified versus MYCN-non-amplified neuroblastoma cell lines [2] | GI50 (SK-N-DZ cells) [µM] | apoptotic areas in tumors (TUNEL) [3] | microvascular density (CD31) [3] | non-proliferative areas (Ki67) [3] | tumor histology (H&E) [3] | MYCN:MAX interaction in tumors (isPLA) (MYCN:MAX interaction)
CCOc1ccc2nc3cc(/N=N/c4ccc(N)nc4N)ccc3c(N)c2c1 [MYCMI-6] | 7 | < 1.5 µM and 1.5 µM | negligible | negligible | 2.5 to 6 | reduced growth of the MYCN-amplified cell lines significantly stronger than the MYCN-non-amplified cell lines | < 0.4 | dramatic increase | significantly reduced | significant increase | signs of necrosis and hemorrhage | significant reduction
CCCCN(c1ccccc1)c1ncnc2c1cnn2C [MYCMI-11] | 23 | ~6 µM and 6 µM | – | – | – | reduced growth of the MYCN-amplified cell lines significantly stronger than the MYCN-non-amplified cell lines | 5 | – | – | – | – | –
O=C(O)/C=C/C(=O)Nc1cccc2c1-c1ccccc1C2=O [MYCMI-14] | 23 | ~6 µM and 6 µM | – | – | – | reduced growth of the MYCN-amplified cell lines significantly stronger than the MYCN-non-amplified cell lines | 0.75 | – | – | – | – | –

— article PMC6030159 (Scientific Reports, 2018)
